Assay results reported in patent US20100093871A1, “AGENT FOR PREVENTION OR TREATMENT OF IRON OVERLOAD DISORDERS” (MEIJI SEIKA KAISHA, LTD., priority 2007, published 2010).

Tested on: serum ferritin
Test: Serum ferritin in chronic hepatitis C patients after oral administration for 24 weeks
Type: in vivo, human (patients suffering from chronic hepatitis C)
Conditions: patients with chronic hepatitis C, 50 mg/day or 200 mg/day in two divided doses, CLIA, percentage change vs level before administration
Description: To patients suffering from chronic hepatitis C, 22β-methoxyolean-12-ene-3β,24(4β)-diol was orally administered for 24 weeks, at a daily dose of 50 mg/day or 200 mg/day. The administration of 22β-methoxyolean-12-ene-3β,24(4β)-diol in each administration group was carried out by orally administering half of each daily dose twice a day after eating breakfast and dinner. For example, in the 50 mg/day administration group, each day 25 mg of the drug was orally administered after breakfast and 25 mg of the drug was orally administered after dinner. Immediately after the beginning of the administration, and after 2, 4, 8, 12, 16, 20, and 24 weeks from the beginning of the administration, serum samples were collected to determine serum ferritin contained in the samples. […] Serum ferritin was determined by a chemiluminescence immunoassay (CLIA) with reference to a method described in a protocol attached to Chemilumi ACS-Ferritin II (Bayer Medical). Each serum ferritin level contained in each serum sample collected was indicated as percentage, with the serum ferritin level before the administration of 22β-methoxyolean-12-ene-3β,24(4β)-diol regarded as […], and an average and a median of all patients were calculated.

Which serum ferritin level does the source give for `CO[C@@H]1CC(C)(C)CC2C3=CCC4[C@@]5(C)CC[C@H](O)[C@](C)(CO)C5CC[C@@]4(C)[C@]3(C)CC[C@]21C` (stereo partly drawn) [22β-methoxyolean-12-ene-3β,24(4β)-diol] here?
Its serum ferritin level is “serum ferritin was lowered”.
